Numbers after ± are expanded uncertainties.
Assay: mn = molality of the nth substance listed, in mol/kg
Conditions: 100 kPa, Liquid, Mettler Toledo inLab 710

CCCCCCCCCCCCCC[N+](C)(C)CCC[N+](C)(C)CCCCCCCCCCCCCC.[Br-].[Br-] + O
electrical conductivity [S/m]
Conditions	308.15 K	313.15 K	318.15 K	323.15 K
m1 = 9.3e-05	–	0.00309 ± 0.00062	0.00331 ± 0.00057	0.00348 ± 0.00057
m1 = 9.8e-05	–	0.00324 ± 0.00061	0.00345 ± 0.00056	0.00363 ± 0.00056
m1 = 0.000104	–	0.00343 ± 0.00051	0.00361 ± 0.00056	0.00382 ± 0.00056
m1 = 0.000111	–	0.00364 ± 0.00045	0.00382 ± 0.00051	0.004 ± 0.00059
m1 = 0.000119	–	0.00382 ± 0.00046	0.00404 ± 0.00053	0.00422 ± 0.0006
m1 = 0.000125	–	0.00391 ± 0.00043	0.0042 ± 0.00054	0.00441 ± 0.00061
m1 = 0.000132	–	0.00407 ± 0.00042	0.00435 ± 0.00055	0.00462 ± 0.00063
m1 = 0.000139	–	0.00423 ± 0.00042	0.00454 ± 0.00055	0.00486 ± 0.00064
m1 = 0.000147	–	0.00441 ± 0.00044	0.00478 ± 0.00055	0.00512 ± 0.00065
m1 = 0.000156	–	0.00463 ± 0.00042	0.00506 ± 0.00055	0.00542 ± 0.00063
m1 = 0.000164	–	0.00479 ± 0.00041	0.00528 ± 0.00055	0.00565 ± 0.00063
m1 = 0.000172	–	0.00497 ± 0.00041	0.0055 ± 0.00054	0.00593 ± 0.00062
m1 = 0.000182	–	0.00513 ± 0.00035	0.00572 ± 0.00047	0.0062 ± 0.00056
m1 = 0.000192	0.00448 ± 0.00025	0.00532 ± 0.00029	0.00599 ± 0.0004	0.00651 ± 0.00049
m1 = 0.0002	0.00455 ± 0.00024	0.00542 ± 0.00028	0.00614 ± 0.00039	0.00669 ± 0.00047
m1 = 0.000208	0.00464 ± 0.00022	0.00552 ± 0.00025	0.00628 ± 0.00035	0.00688 ± 0.00042
m1 = 0.000217	0.00471 ± 0.00019	0.00564 ± 0.00022	0.00642 ± 0.00031	0.00704 ± 0.00038
m1 = 0.000227	0.00479 ± 0.00018	0.00574 ± 0.00022	0.00656 ± 0.00029	0.0072 ± 0.00035
m1 = 0.000238	0.00488 ± 0.00029	0.00582 ± 0.00016	0.0067 ± 0.00021	0.00737 ± 0.00032
m1 = 0.00025	0.00498 ± 0.00029	0.00594 ± 0.00017	0.00684 ± 0.0002	0.00754 ± 0.00031

From the NIST ThermoML archive (doi:10.1021/je500513b)
